The values that follow come from patent US12233161B1, “Lipids and lipid nanoparticle formulations” (LONGUIDE BIOPHARMA CORPORATION, priority 2024, dated 2025).

Data set [1] is described as follows: Particle size and PDI of nucleic acid lipid nanoparticle preparations by dynamic light scattering. It is filed as physicochemical. As to the method:
The 7.5 μL nucleic acid lipid nanoparticle solution (containing approximately 0.04 mg/mL mRNA) was taken and added with 200 μL ultrapure water, mixed by gentle blowing using a pipette tip, and the particle size of the nanopreparation was detected by dynamic lightscattering (DLS) using a Malvern Dynamic Light Scattering Instrument (Malvern Instruments Ltd., ZEN3700, UK).
27.5 μL nucleic acid lipid nanoparticle solution (containing about 0.04 mg/mL mRNA) was taken and added with 200 μL ultrapure water. A pipette tip was used to gently blow the sample and mix well. The particle size of the nanopreparation was detected by Malvern Dynamic Light Scattering Instrument (Malvern Instruments Ltd., ZEN3700, UK). After the detection, the sample was recovered to an EP tube, and 600 μL of ultrapure water was added, gently blown with a pipette tip, and the potential of the nanopreparation was measured by a Malvern particle size meter.

Data set [2] deals with mice. Description: In vivo delivery of FLuc-mRNA lipid nanoparticles in mice, in vivo imaging (IVIS). The settings on record: for in vivo delivery efficiency as compared to the benchmark compound SM102 / tissue-targeting specificity (lung vs spleen depending on molar percentage of compound): certain formulations, Table 2. The method, boiled down:
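Mice (n=3) received about 75 μL FLuc-mRNA LNP per mouse intramuscularly (rectus femoris), intravenously (tail vein), intraperitoneally or subcutaneously (back). After injection, D-luciferin (200 μL, 15 mg/mL) was given i.p. 10-15 min before IVIS imaging.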

Where [3] appears, read: DMG-PEG2000:DSPC:Chol:Lipid 1.09:8.66:30.25:60.00, N/P 13.3, mRNA LNP.
Setting [4] is: DMG-PEG2000:DSPC:Chol:Lipid 1.40:11.15:38.95:48.50, N/P 13.3, mRNA LNP.
The mark [5] stands for this setting: DMG-PEG2000:DSPC:Chol:compound 1.40:11.15:38.95:48.50, N/P 30.
The mark [6] stands for this setting: DMG-PEG2000:DSPC:Chol:compound 1.40:11.15:38.95:48.50, N/P 20.
Where [7] appears, read: DMG-PEG2000:DSPC:Chol:Lipid 1.40:11.15:38.95:48.50, N/P 30, mRNA LNP.
The mark [8] stands for this setting: DMG-PEG2000:DSPC:Chol:Lipid 2.63:12.10:53.68:31.59, N/P 30, mRNA LNP.
The mark [9] stands for this setting: DMG-PEG2000:DSPC:Chol:Lipid 1.40:11.15:38.95:48.50, N/P 30, IV, liver.
Where [10] appears, read: DMG-PEG2000:DSPC:Chol:Lipid 1.40:11.15:38.95:48.50, N/P 30, IV, lung.
Setting [11] is: DMG-PEG2000:DSPC:Chol:Lipid 1.40:11.15:38.95:48.50, N/P 30, IV, spleen.
Where [12] appears, read: DMG-PEG2000:DSPC:Chol:Lipid 2.63:12.10:53.68:31.59, N/P 30, IV, liver.
Where [13] appears, read: DMG-PEG2000:DSPC:Chol:Lipid 2.63:12.10:53.68:31.59, N/P 30, IV, lung.
The mark [14] stands for this setting: DMG-PEG2000:DSPC:Chol:Lipid 2.63:12.10:53.68:31.59, N/P 30, IV, spleen.
[15] abbreviates: DMG-PEG2000:DSPC:Chol:Lipid 1.00:11.50:22.50:65.00, N/P 65, mRNA LNP.
Where [16] appears, read: DMG-PEG2000:DSPC:Chol:Lipid 1.00:16.00:48.00:35.00, N/P 35, mRNA LNP.
Where [17] appears, read: DMG-PEG2000:DSPC:Chol:Lipid 1.00:16.00:63.00:20.00, N/P 35, mRNA LNP.
Where [18] appears, read: DMG-PEG2000:DSPC:Chol:Lipid 2.50:11.50:51.00:35.00, N/P 50, mRNA LNP.
Where [19] appears, read: DMG-PEG2000:DSPC:Chol:compound 1.00:10.00:33.00:56.00, N/P 42.
Where [20] appears, read: DMG-PEG2000:DSPC:Chol:Lipid 1.00:11.50:22.50:65.00, N/P 65, IV, liver.
Setting [21] is: DMG-PEG2000:DSPC:Chol:Lipid 1.00:11.50:22.50:65.00, N/P 65, IV, lung.
[22] abbreviates: DMG-PEG2000:DSPC:Chol:Lipid 1.00:11.50:22.50:65.00, N/P 65, IV, spleen.
[23] abbreviates: DMG-PEG2000:DSPC:Chol:Lipid 2.50:11.50:51.00:35.00, N/P 50, IV, liver.
Where [24] appears, read: DMG-PEG2000:DSPC:Chol:Lipid 2.50:11.50:51.00:35.00, N/P 50, IV, lung.
Setting [25] is: DMG-PEG2000:DSPC:Chol:Lipid 2.50:11.50:51.00:35.00, N/P 50, IV, spleen.

Consider `CCCCCCOCOCCCCCCOC(=O)C(O)CN(CCCN(C)CCCN(CC(O)C(=O)OCCCCCCOCOCCCCCC)CC(O)C(=O)OCCCCCCOCOCCCCCC)CC(O)C(=O)OCCCCCCOCOCCCCCC` (stereo not shown) [Compound L0271], for which the PDI is reported as 0.06 ± 0.01 in data set [1] (setting [3]) and 0.04 ± 0.03 in data set [1] (setting [4]). In addition, the Particle size amounted to 145.73 ± 2.21 nm in data set [1] (setting [3]) and 124.63 ± 0.70 nm in data set [1] (setting [4]). For the same compound, the IVIS in data set [2] (DMG-PEG2000:DSPC:Chol:Lipid 1.09:8.66:30.25:60.00, N/P 13.3, IM, whole body scan) is 3.27 × 10^6; in data set [2] (DMG-PEG2000:DSPC:Chol:Lipid 1.40:11.15:38.95:48.50, N/P 13.3, IV, whole body scan), 4.16 × 10^8.

In the case of `CCCCCCOCOCCCCCCOC(=O)C(O)CN(C)CCCN(C)CCCN(C)CC(O)C(=O)OCCCCCCOCOCCCCCC` (stereo not shown) [Compound L0331], in data set [1] (setting [5]), the PDI was determined as 0.06 and the “Particle size (nm)” value is recorded as 122.67 nm. For the same compound, the IVIS in data set [2] (IM, DMG-PEG2000:DSPC:Chol:compound 1.40:11.15:38.95:48.50, N/P 30, Fluc-mRNA) worked out at 3.39E+06. Further, the IVIS in data set [2] (IV, organ not given, DMG-PEG2000:DSPC:Chol:compound 1.40:11.15:38.95:48.50, N/P 30, Fluc-mRNA) came out at 9.27E+05.

As to `CCCCCCOCOCCCCCCOC(=O)C(O)CN(CCOCCOCCN(CC(O)C(=O)OCCCCCCOCOCCCCCC)CC(O)C(=O)OCCCCCCOCOCCCCCC)CC(O)C(=O)OCCCCCCOCOCCCCCC` (stereo not shown) [Compound L0329], the PDI in data set [1] (setting [6]) came to 0.18. The “Particle size (nm)” value in data set [1] (setting [6]) came to 158.43 nm. For the same compound, the IVIS in data set [2] (IM, DMG-PEG2000:DSPC:Chol:compound 1.40:11.15:38.95:48.50, N/P 20, Fluc-mRNA) amounted to 4.22E+06; in data set [2] (IV, body, DMG-PEG2000:DSPC:Chol:compound 1.40:11.15:38.95:48.50, N/P 20, Fluc-mRNA), 3.09E+06; in data set [2] (IV, liver, DMG-PEG2000:DSPC:Chol:compound 1.40:11.15:38.95:48.50, N/P 20, Fluc-mRNA), 5.34E+05; in data set [2] (IV, lung, DMG-PEG2000:DSPC:Chol:compound 1.40:11.15:38.95:48.50, N/P 20, Fluc-mRNA), 1.11E+05; in data set [2] (IV, spleen, DMG-PEG2000:DSPC:Chol:compound 1.40:11.15:38.95:48.50, N/P 20, Fluc-mRNA) it was 1.44E+06. Besides, the “% of organ targeting” value in data set [2] (IV, liver, DMG-PEG2000:DSPC:Chol:compound 1.40:11.15:38.95:48.50, N/P 20) came out at 25.67%; in data set [2] (IV, lung, DMG-PEG2000:DSPC:Chol:compound 1.40:11.15:38.95:48.50, N/P 20) it was 5.35%; in data set [2] (IV, spleen, DMG-PEG2000:DSPC:Chol:compound 1.40:11.15:38.95:48.50, N/P 20), 68.99%.

In the case of `CCCCCCCCCCCCNC(=O)C(O)CN(CCCCN(C)CCCCN(CC(O)C(=O)NCCCCCCCCCCCC)CC(O)C(=O)NCCCCCCCCCCCC)CC(O)C(=O)NCCCCCCCCCCCC` (stereo not shown) [Compound L0283], the PDI in data set [1] (setting [7]) and in data set [1] (setting [8]) was 0.12 ± 0.01 each time. For the same compound, the Particle size stood at 99.68 ± 0.45 nm in data set [1] (setting [7]) and 95.92 ± 0.22 nm in data set [1] (setting [8]). Moreover, the IVIS is on record as 2.02 × 10^6 in data set [2] (DMG-PEG2000:DSPC:Chol:Lipid 1.40:11.15:38.95:48.50, N/P 30, IM, whole body scan); 1.94 × 10^8 in data set [2] (DMG-PEG2000:DSPC:Chol:Lipid 1.40:11.15:38.95:48.50, N/P 30, IV, body (whole body scan)); 9.53 × 10^6 in data set [2] (setting [9]); 1.24 × 10^9 in data set [2] (setting [10]); 1.54 × 10^7 in data set [2] (setting [11]); 4.87 × 10^7 in data set [2] (DMG-PEG2000:DSPC:Chol:Lipid 2.63:12.10:53.68:31.59, N/P 30, IV, body). For the same compound, the IVIS is on record as 3.31 × 10^6 in data set [2] (setting [12]), 1.48 × 10^7 in data set [2] (setting [13]) and 3.98 × 10^7 in data set [2] (setting [14]). The “% of organ targeting” value amounted to 0.75% in data set [2] (setting [9]); 98.03% in data set [2] (setting [10]); 1.22% in data set [2] (setting [11]); 5.72% in data set [2] (setting [12]); 25.56% in data set [2] (setting [13]); 68.73% in data set [2] (setting [14]). Also, the “in vivo delivery efficiency as compared to the benchmark compound SM102” value in data set [2] was “superior in vivo delivery efficiency”. In data set [2], the “tissue-targeting specificity (lung vs spleen depending on molar percentage of compound)” value is given as “strong tissue-targeting specificity”.

Regarding `CCCCCCCCCCNC(=O)C(O)CN(CCCN(C)CCCN(CC(O)C(=O)NCCCCCCCCCC)CC(O)C(=O)NCCCCCCCCCC)CC(O)C(=O)NCCCCCCCCCC` (stereo not shown) [Compound L0265], the PDI is recorded as 0.10 ± 0.02 in data set [1] (setting [15]); 0.11 ± 0.02 in data set [1] (setting [16]); 0.11 ± 0.02 in data set [1] (setting [17]); 0.12 ± 0.01 in data set [1] (setting [18]); 0.08 in data set [1] (setting [19]). The Particle size in data set [1] (setting [15]) worked out at 87.42 ± 0.32 nm; in data set [1] (setting [16]), 115.10 ± 0.87 nm; in data set [1] (setting [17]), 135.03 ± 0.67 nm; in data set [1] (setting [18]), 122.50 ± 1.15 nm. Further, the “Particle size (nm)” value in data set [1] (setting [19]) was 101.60 nm. Further, the IVIS is given as 1.59 × 10^8 in data set [2] (DMG-PEG2000:DSPC:Chol:Lipid 1.00:11.50:22.50:65.00, N/P 65, IV, body); 7.76 × 10^6 in data set [2] (setting [20]); 1.00 × 10^9 in data set [2] (setting [21]); 1.53 × 10^7 in data set [2] (setting [22]); 6.15 × 10^7 in data set [2] (DMG-PEG2000:DSPC:Chol:Lipid 1.00:16.00:48.00:35.00, N/P 35, IM, whole body scan); 6.47 × 10^6 in data set [2] (DMG-PEG2000:DSPC:Chol:Lipid 1.00:16.00:63.00:20.00, N/P 35, IM, whole body scan). The IVIS in data set [2] (DMG-PEG2000:DSPC:Chol:Lipid 2.50:11.50:51.00:35.00, N/P 50, IV, body) was 4.45 × 10^7; in data set [2] (setting [23]), 6.87 × 10^6; in data set [2] (setting [24]) it was 6.51 × 10^6; in data set [2] (setting [25]), 1.88 × 10^7; in data set [2] (IV, body, DMG-PEG2000:DSPC:Chol:compound 1.00:10.00:33.00:56.00, N/P 42, Fluc-mRNA), 2.04E+08; in data set [2] (IV, liver, DMG-PEG2000:DSPC:Chol:compound 1.00:10.00:33.00:56.00, N/P 42, Fluc-mRNA), 2.18E+06. In addition, the IVIS in data set [2] (IV, lung, DMG-PEG2000:DSPC:Chol:compound 1.00:10.00:33.00:56.00, N/P 42, Fluc-mRNA) worked out at 3.94E+08; in data set [2] (IV, spleen, DMG-PEG2000:DSPC:Chol:compound 1.00:10.00:33.00:56.00, N/P 42, Fluc-mRNA), 4.11E+06. Besides, the “% of organ targeting” value worked out at 0.76% in data set [2] (setting [20]); 97.75% in data set [2] (setting [21]); 1.50% in data set [2] (setting [22]); 21.35% in data set [2] (setting [23]); 20.23% in data set [2] (setting [24]); 58.42% in data set [2] (setting [25]). Besides, the “% of organ targeting” value in data set [2] (IV, liver, DMG-PEG2000:DSPC:Chol:compound 1.00:10.00:33.00:56.00, N/P 42) came out at 0.55%; in data set [2] (IV, lung, DMG-PEG2000:DSPC:Chol:compound 1.00:10.00:33.00:56.00, N/P 42) it was 98.43%; in data set [2] (IV, spleen, DMG-PEG2000:DSPC:Chol:compound 1.00:10.00:33.00:56.00, N/P 42) it was 1.03%. In data set [2], the “in vivo delivery efficiency as compared to the benchmark compound SM102” value is “superior in vivo delivery efficiency”. Moreover, the “tissue-targeting specificity (lung vs spleen depending on molar percentage of compound)” value in data set [2] is given as “strong tissue-targeting specificity”.
